Measurements reported in article PMC3559838 (PLoS ONE, 2013).
Values belong to the molecule of their own block, whether it stands above or below them.

Columns and labels:
[1] = Pharmacokinetics after 30 min i.v. infusion, phase I trial in hepatocellular carcinoma patients; assay type: in vivo, human; conditions: for Relative Exposure, Bel-G/Bel AUC ratio: AUC0–24 h molar ratio; for relative systemic exposure of belinostat glucuronide versus belinostat: human plasma, molar concentration AUC ratio
Experimental: This multicentre phase I trial of belinostat was done in Hong Kong and Singapore. All patients provided written informed consent according to Good Clinical Practice guidelines, and the protocol was approved by the institutional review boards of Prince of Wales Hospital, Hong Kong and National University Hospital, Singapore.
Venous blood samples had been collected in heparinized tubes. Collected blood samples were centrifuged at 3000 g for 10–15 min and the plasma (supernatant) was separated from the cell pellet and stored in plain tubes at –80°C till analysis. […] Briefly, vorinostat-G was used as the internal standard for belinostat-G. The mass spectrometer was operated in positive ion mode with the optimal mass transitions of belinostat-G: m/z 495>93 and vorinostat-G: m/z 441>232, respectively. The analytical method was well validated with good linearity (coefficient of determination, r^2≥0.999) in the range of 1–100 µM for belinostat-G.
Pharmacokinetic parameters were estimated based on non-compartmental analysis model using WinNonlin software version 5.3 (Pharmsight, Sunnyvale, CA, USA). […] One way analysis of variance (ANOVA) was used to determine the significance among the genotypes with Tukey posthoc tests for adjustment for comparison between individual groups. A value of p<0.05 was considered to be significant.

HepG2 cells [2] = experiment: Gentian Violet viability staining, 24-well plates; assay type: cell-based, human; conditions: 0–10 µM, 72 h
Experimental: (§1) To the other plate, equal molar concentrations of belinostat-G were added similarly. After 72 h, cells were stained with Gentian Violet paint (0.5% w/v; B.P.) and assessed for viability. […] After incubating 24 h, 100-µL drug solution or blank medium was added into each well of 96-well plates. 72 h later, 20 µL of MTS/PES was added into each well for incubation for 3 h. OD values are measured on wavelength 490 nm. Cell growth inhibition was calculated based on the […] with subtraction of background reading for only medium containing wells. The growth inhibition was defined as the percentage of the average […] from drug-treated wells over that from control wells without treatment. The experiment was done in triplicates. IC50 values were calculated using GraphPad PRISM software (GraphPad Software, Inc., La Jolla, CA, USA).

HepG2 cells [3] = experiment: MTS growth inhibition assay; assay type: cell-based, human; conditions: HepG2, 72 h
Experimental: as §1

Acidic stability test = assay type: physicochemical; conditions: for variation in concentrations between beginning and after 24 h: 37°C, acidic solutions pH 2.6–6.5; for stability in acidic solutions: 24 h incubation at 37°C, pH 2.6–6.5
Experimental: 1 mg/mL of belinostat-G and vorinostat-G was prepared in various vehicles with different pH values. These vehicles included 10 mM ammonium acetate (pH = 6.5), 10 mM ammonium formate (pH = 6.0), 0.1% acetic acid (pH = 3.2) and 0.1% formic acid (pH = 2.6). All of these test samples were incubated at 37°C for 24 h. Milli Q water (pH = 5.5) was used as control solution which was stored in −20°C. All the samples were analyzed by LC-MS/MS to obtain the values of peak area for belinostat-G and vorinostat-G. The acidic stability of both conjugated compounds was evaluated through comparison of peak area ratio of test samples versus control.

[4] = substrate: O=C(/C=C/c1cccc(S(=O)(=O)Nc2ccccc2)c1)NO; experiment: UGT supersome screening and kinetic analysis; assay type: in vitro ADME, human; conditions: other: UGT1A1 supersomes, 10 to 750 µM substrate, Michaelis-Menten

- Relative Exposure, Bel-G/Bel AUC ratio ([1]; 600 mg/m^2): 4.79±0.46
- Relative Exposure, Bel-G/Bel AUC ratio ([1]; 900 mg/m^2): 4.22±0.15
- Relative Exposure, Bel-G/Bel AUC ratio ([1]; 1200 mg/m^2): 4.82±1.80
- Relative Exposure, Bel-G/Bel AUC ratio ([1]; 1400 mg/m^2): 4.13±0.68
- relative systemic exposure of belinostat glucuronide versus belinostat ([1]; listed as belinostat glucuronide): more than 4 fold
- relative systemic exposure of belinostat glucuronide versus belinostat ([1]; listed as belinostat-G): 4 fold
- IC50 (MTS) (HepG2 cells [3]): cannot be converged
- variation in concentrations between beginning and after 24 h (Acidic stability test): < 4%
- stability in acidic solutions (Acidic stability test): stable
- degradation (Acidic stability test; pH 2.6, 37°C, 24 h): 7%
Molecule: O=C(/C=C/c1cccc(S(=O)(=O)Nc2ccccc2)c1)NO[C@@H]1O[C@H](C(=O)O)[C@@H](O)[C@H](O)[C@H]1O [Belinostat-G, Belinostat glucuronide]
- cytotoxicity / cell viability (staining) (HepG2 cells [2]): did not seem to affect cell viability

- variation in concentrations between beginning and after 24 h (Acidic stability test): < 4%
- stability in acidic solutions (Acidic stability test): stable
Molecule: O=C(CCCCCCC(=O)Nc1ccccc1)NO[C@@H]1O[C@H](C(=O)O)[C@@H](O)[C@H](O)[C@H]1O [vorinostat-G, Vorinostat glucuronide]

B1: UGT1A1 (Homo sapiens) (protein)
chain: HAGKILLIPVDGSHWLSMLGAIQQLQQRGHEIVVLAPDASLYIRDGAFYTLKTYPVPFQREDVKESFVSLGHNVFENDSFLQRVIKTYKKIKKDSAMLLSGCSHLLHNKELMASLAESSFDVMLTDPFLPCSPIVAQYLSLPTVFFLHALPCSLEFEATQCPNPFSYVPRPLSSHSDHMTFLQRVKNMLIAFSQNFLCDVVYSPYATLASEFLQREVTVQDLLSSASVWLFRSDFVKDYPRPIMPNMVFVGGINCLHQNPLSQEFEAYINASGEHGIVVFSLGSMVSEIPEKKAMAIADALGKIPQTVLWRYTGTRPSNLANNTILVKWLPQNDLLGHPMTRAFITHAGSHGVYESICNGVPMVMMPLFGDQMDNAKRMETKGAGVTLNVLEMTSEDLENALKAVINDKSYKENIMRLSSLHKDRPVEPLDLAVFWVEFVMRHKGAPHLRPAAHDLTWYQYHSLDVIGFLLAVVLTVAFITFKCCAYGYRKCLGKKGRVKKAHKSKTH
notes: purchased BD Gentest
- Km [4]: 99.6 µM
- Vmax [4]: 353.1 pmol/min/mg protein
- Vmax/Km [4]: 3.5 µL/min/mg protein
